# In ChEMBL document CHEMBL5375984, “Development of Ligands for the Super Conserved Orphan G Protein-Coupled Receptor GPR27 with Improved Efficacy and Potency” (J Med Chem, 2023):
# What was measured:
# [1] = molecular target: T1, GPR27-V2 (Homo sapiens, UniProt P30518+Q9NS67); experiment: Agonist activity at CLuc-tagged human GPR27-V2 expressed in HEK293 cells incubated for 10 mins by beta-arrestin 2 recruitment based firefly luciferase complementation assay
# [2] = molecular target: T1, GPR27-V2; experiment: Agonist activity at CLuc-tagged human GPR27-V2 expressed in HEK293 cells incubated overnight by beta-arrestin 2 recruitment based firefly luciferase complementation assay
# [3] = molecular target: Probable G-protein coupled receptor 27 (Homo sapiens, UniProt Q9NS67); experiment: Agonist activity at CLuc-tagged human GPR27 expressed in HEK293 cells incubated for 10 mins by beta-arrestin 2 recruitment based firefly luciferase complementation assay
# Chain of Probable G-protein coupled receptor 27 (Q9NS67 whole entry): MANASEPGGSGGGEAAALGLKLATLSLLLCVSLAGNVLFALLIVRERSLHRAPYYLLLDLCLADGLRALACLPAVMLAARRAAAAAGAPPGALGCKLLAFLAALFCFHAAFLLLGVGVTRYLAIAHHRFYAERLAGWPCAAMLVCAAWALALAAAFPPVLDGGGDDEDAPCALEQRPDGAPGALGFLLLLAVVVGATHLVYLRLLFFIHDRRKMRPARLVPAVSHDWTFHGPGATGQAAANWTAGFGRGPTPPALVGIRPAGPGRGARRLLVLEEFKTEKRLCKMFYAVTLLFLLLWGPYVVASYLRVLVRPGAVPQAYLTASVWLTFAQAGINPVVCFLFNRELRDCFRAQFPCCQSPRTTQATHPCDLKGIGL
# T1 sequence (P30518 whole entry): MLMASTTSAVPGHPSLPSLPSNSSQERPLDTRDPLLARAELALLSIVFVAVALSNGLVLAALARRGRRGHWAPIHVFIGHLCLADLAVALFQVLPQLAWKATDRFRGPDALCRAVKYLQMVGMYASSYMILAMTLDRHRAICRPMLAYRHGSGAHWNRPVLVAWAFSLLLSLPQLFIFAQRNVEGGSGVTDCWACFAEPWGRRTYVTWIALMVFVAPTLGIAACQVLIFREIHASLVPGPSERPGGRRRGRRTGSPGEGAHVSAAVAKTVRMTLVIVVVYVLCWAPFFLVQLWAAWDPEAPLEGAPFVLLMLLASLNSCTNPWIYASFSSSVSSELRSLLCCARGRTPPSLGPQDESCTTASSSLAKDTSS
# T1 sequence (Q9NS67 whole entry): as the sequence (Q9NS67 whole entry) above
EC50 [1] [nM],EC50 [2] [nM],EC50 [3] [nM],SMILES
> 100000,–,–,Cc1cc(NS(=O)(=O)c2ccc(NC(=O)c3ccc(Cl)cc3Cl)cc2)no1
> 100000,–,–,O=C(Nc1ccc(S(=O)(=O)Nc2cnc3ccccc3n2)cc1)c1ccc(Cl)cc1Cl
7410,417,6610,O=C(Nc1ccc(S(=O)(=O)Nc2ccccc2)cc1)c1ccc(Cl)cc1Cl
–,661,–,O=C(Nc1ccc(S(=O)(=O)Nc2nccs2)cc1)c1ccc(Cl)cc1Cl
> 100000,–,–,O=C(Nc1ccc(S(=O)(=O)O)cc1)c1ccc(Cl)cc1Cl
–,–,> 31600,Cc1cc(Cl)c(C(=O)Nc2ccc(S(=O)(=O)Nc3ccccc3)cc2)cc1F
> 100000,–,–,CN(C)S(=O)(=O)c1ccc(NC(=O)c2ccc(Cl)cc2Cl)cc1
3890,–,447,O=C(Nc1ccc(S(=O)(=O)Nc2ccccc2)cc1)c1ccc(F)cc1F
3890,–,6760,O=C(Nc1ccc(S(=O)(=O)Nc2ccccc2)cc1)c1ccc(C(F)(F)F)cc1Cl
–,–,562,Cc1cc(Br)c(F)cc1C(=O)Nc1ccc(S(=O)(=O)Nc2ccccc2)cc1
> 100000,–,–,Cc1nnc(NS(=O)(=O)c2ccc(NC(=O)c3ccc(Cl)cc3Cl)cc2)s1
> 100000,–,–,CC(=O)NS(=O)(=O)c1ccc(NC(=O)c2ccc(Cl)cc2Cl)cc1
3240,–,1230,O=C(Nc1ccc(S(=O)(=O)Nc2ccccc2)cc1)c1ccc(Br)cc1Br
38000,–,–,CS(=O)(=O)c1ccc(NC(=O)c2ccc(Cl)cc2Cl)cc1
–,–,> 31600,N#Cc1cc(Cl)c(C(=O)Nc2ccc(S(=O)(=O)Nc3ccccc3)cc2)c(Cl)c1
550,–,> 31600,O=C(Nc1ccc(S(=O)(=O)Nc2ccccc2)cc1)c1ccc(C(F)(F)F)cc1C(F)(F)F
–,–,263,Cc1cc(Cl)c(Cl)cc1C(=O)Nc1ccc(S(=O)(=O)Nc2ccccc2)cc1
977,–,204,COc1cc(Cl)ccc1C(=O)Nc1ccc(S(=O)(=O)Nc2ccccc2)cc1
> 100000,–,–,CNS(=O)(=O)c1ccc(NC(=O)c2ccc(Br)cc2Br)cc1

EC50 [1] [nM],EC50 [2] [nM],EC50 [3] [nM],SMILES
> 100000,–,–,Cc1onc(NS(=O)(=O)c2ccc(NC(=O)c3ccc(Cl)cc3Cl)cc2)c1C
–,–,589,O=C(Nc1ccc(S(=O)(=O)Nc2ccccc2)cc1)c1cc(Cl)c(Cl)cc1Cl
5890,–,977,N#Cc1ccc(C(=O)Nc2ccc(S(=O)(=O)Nc3ccccc3)cc2)c(Cl)c1
–,–,372,Cc1cc(C(=O)Nc2ccc(S(=O)(=O)Nc3ccccc3)cc2)c(Cl)cc1Cl
> 100000,–,–,NS(=O)(=O)c1ccc(NC(=O)c2ccc(Br)cc2Br)cc1
195,–,> 31600,O=C(Nc1ccc(S(=O)(=O)Nc2ccccc2)cc1)c1ccc(Cl)cc1OC(F)(F)F
–,–,955,O=C(Nc1ccc(S(=O)(=O)Nc2ccccc2)cc1)c1cc2ccccc2cc1Cl
6920,–,245,O=C(Nc1ccc(S(=O)(=O)Nc2ccccc2)cc1)c1ccc(C(F)(F)F)cc1Br
8130,–,> 31600,COc1ccc(C(=O)Nc2ccc(S(=O)(=O)Nc3ccccc3)cc2)c(Cl)c1
–,–,> 31600,O=C(Nc1ccc(S(=O)(=O)Nc2ccccc2)cc1)c1c(Cl)cc(Cl)cc1Cl
–,–,2140,Cc1cc(C(=O)Nc2ccc(S(=O)(=O)Nc3ccccc3)cc2)c(F)cc1Br
–,–,631,O=C(Nc1ccc(S(=O)(=O)Nc2ccccc2)cc1)c1ccc(Cl)c(Cl)c1Cl
> 100000,–,> 31600,COc1ccc(C(=O)Nc2ccc(S(=O)(=O)Nc3ccccc3)cc2)c(C)c1
> 100000,–,–,O=C(/C=C/c1ccc(Cl)cc1Cl)Nc1ccc(S(=O)(=O)Nc2ccccc2)cc1
–,–,126,Cc1cc(C(=O)Nc2ccc(S(=O)(=O)Nc3ccccc3)cc2)c(C)cc1Br
–,–,275,Cc1cc(C(=O)Nc2ccc(S(=O)(=O)Nc3ccccc3)cc2)c(C)cc1Cl
–,–,380,O=C(Nc1ccc(S(=O)(=O)Nc2ccccc2)cc1)c1cc(F)c(Cl)cc1Cl
–,–,363,Cc1cc(Cl)c(C(=O)Nc2ccc(S(=O)(=O)Nc3ccccc3)cc2)cc1Cl
